Results from paper doi:10.1101/2023.10.24.563163v2, “Targeting cancer with small molecule pan-KRAS degraders” (biorxiv, 2024).

What was measured:
[1] = molecular target: T1, VCB:KRAS ternary complex partners (Homo sapiens, UniProt P01116+P40337, P01116:C118S/P01116:G12D); test: biochemical; set-up: SPR binary and ternary complex binding affinity and kinetics; settings: SPR; for kon: read-out: SPR VCB+KRAS^G12D kon [1/(M s)]
T1 construct: VCB (Avi-tagged, biotinylated for SPR) plus KRAS 1-169 C118S GDP; E. coli, His6 tags removed; with Elongin-C; Elongin-B
Description: With the objective of identifying molecules that potently degrade multiple KRAS mutants we next sought to employ structure-based design using the solved ternary co-crystal structure of compound 3 to improve ternary complex stability and intracellular VHL engagement. […] Analysis of the VCB:compound 3:KRAS^G12V co-crystal structure (Fig. 1H) highlighted an opportunity to enhance interactions within the ternary complex by improving π-stacking between the exit vector amide of the VHL ligand and Tyr112. We therefore switched the amide for an isoxazole, which has been previously reported to improve VCB affinity in this position in other contexts ([22]), yielding compound 4 (Fig. 2A). A ternary complex co-crystal structure of VCB:compound 4:KRAS^G12V (PDB 8QW7) confirmed a consistent overall binding mode to that observed for compound 3 (RMSD = 0.72 Å), with compound 4 able to engage in π-stacking interaction between the isoxazole and Tyr112 of VCB as designed (Fig. 2B). […] FP, SPR and cellular target engagement studies support a minor improvement in binary VHL engagement for compound 4, with moderate cooperativity retained (fig. S2A-C, table S1). […] We then investigated the impact of these structural changes on degradation kinetics in live HiBiT-tagged GP5d cells (fig. S3A-D). […] Aiming to measure ternary complex stability, we noted that the FP assay reached the limits of quantification due to ternary KD approaching that of the assay probe (fig. S8B).

GP2d = test: cells; set-up: pERK levels by capillary electrophoresis; settings: GP2d, 6 h
Description: (§1) Protein Detection by Capillary Electrophoresis Cells (50 000) were seeded the day before treatment into 96-well clear-flat bottom plates and incubated overnight (37 °C, humidified tissue culture incubator, 5% CO2). Compounds were added from DMSO stock solution using a digital dispenser and cells are incubated at 37 °C as specified (24 hours for KRAS degradation, 6 hours for determination of pERK levels). At the end of the incubation, medium was removed, cells washed with ice cold PBS, PBS removed and 50 µL lysis buffer (Meso Scale Discovery #R60TX-2) supplemented with 1:100 protease inhibitor solution, 1:100 phosphatase inhibitor I, 1:100 phosphatase inhibitor II (Meso Scale Discovery #R70AA-1), 0.5 µL/mL Benzonase (Novagen #70664-3) and 10 mM dithiothreitol added to each well. Plates with lysis buffer were immediately transferred to -80 °C freezer for at least 2 hours and then thawed on ice. Lysates were transferred to a 96 well V-bottom plate and insoluble debris was pelleted by centrifugation for 20 min. at 4 000 rpm. 40 µL of the supernatant were transferred to a fresh Eppendorf PCR plate. Analysis of protein levels was conducted using the Wes System, ProteinSimple (https://www.bio-techne.com/) as specified by the manufacturer. Briefly, Wes Master Mix (12-230 kDa WES Separation Module, 8 × 25 capillary cartridges, ProteinSimple #SM-W004) and molecular weight markers were prepared as specified in the manufacturer’s recommendations. To detect primary antibodies, anti-rabbit (Protein Simple #DM-001) or anti-mouse (Protein Simple #DM-002) detection modules were used. 7.2 µL lysate + 1.8 µL master mix were combined and heated to 95 °C for 5 min. Th

KRAS^G12C = KRAS^G12C (Homo sapiens, UniProt P01116, G12C); set-up: endogenous in NCI-H358; KRAS degradation by capillary electrophoresis (Wes) immunodetection; settings: NCI-H358; 6 h; degrader
Description: as §1, with “Compounds were added from DMSO stock solution using a digital dispenser and cells are incubated at 37 °C as specified (24 hours for KRAS degradation, 6 hours for determination of pERK levels).” left out, “7.2 µL lysate + 1.8 µL master mix were combined and heated to 95 °C for 5 min. Th” left out

T1 sequence (Q15370 1-104): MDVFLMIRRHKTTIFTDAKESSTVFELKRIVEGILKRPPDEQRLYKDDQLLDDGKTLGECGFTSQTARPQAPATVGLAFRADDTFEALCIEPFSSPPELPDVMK
T1 sequence (P01116 1-169 G12D/C118S): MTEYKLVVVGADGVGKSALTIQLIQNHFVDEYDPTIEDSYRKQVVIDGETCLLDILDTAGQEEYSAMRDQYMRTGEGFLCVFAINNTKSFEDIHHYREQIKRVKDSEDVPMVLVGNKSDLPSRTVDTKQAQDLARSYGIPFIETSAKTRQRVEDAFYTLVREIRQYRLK
T1 sequence (Q15369 17-112, further chain): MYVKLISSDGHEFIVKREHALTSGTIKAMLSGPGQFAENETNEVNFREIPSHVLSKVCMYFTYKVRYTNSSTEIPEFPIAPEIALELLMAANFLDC
T1 sequence (P40337 54-213): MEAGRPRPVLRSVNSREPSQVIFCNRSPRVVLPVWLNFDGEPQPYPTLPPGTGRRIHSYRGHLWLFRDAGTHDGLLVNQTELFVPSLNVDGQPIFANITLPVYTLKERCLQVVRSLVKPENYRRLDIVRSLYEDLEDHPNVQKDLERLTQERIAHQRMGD
Chain of KRAS^G12C (P01116 whole entry G12C): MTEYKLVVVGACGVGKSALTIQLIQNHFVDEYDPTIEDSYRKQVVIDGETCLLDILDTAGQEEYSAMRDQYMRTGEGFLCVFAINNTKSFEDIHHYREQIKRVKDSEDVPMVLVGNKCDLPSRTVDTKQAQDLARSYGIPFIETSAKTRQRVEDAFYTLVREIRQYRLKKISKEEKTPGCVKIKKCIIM

`Cc1ncsc1-c1ccc(CNC(=O)[C@@H]2C[C@@H](O)CN2C(=O)[C@@H](NC(=O)CCCCCN2CCCN(c3nccc(-c4noc([C@@]5(C)CCCc6sc(N)c(C#N)c65)n4)n3)[C@@H](C)C2)C(C)(C)C)cc1` [compound 3] gave a Kd [1] of 30 ± 6 nM, a kon [1] of 242000 M⁻¹ s⁻¹ and an IC50 (GP2d) of 772 nM. For the same molecule, the DC50 (KRAS^G12C) was 159 nM.

`Cc1ncsc1-c1ccc(CNC(=O)[C@@H]2C[C@@H](O)CN2C(=O)[C@@H](c2cc(OCCCCN3CCCN(c4nccc(-c5noc([C@@]6(C)CCCc7sc(N)c(C#N)c76)n5)n4)[C@@H](C)C3)no2)C(C)C)cc1` [compound 4] gave an IC50 (GP2d) of 3.1 nM and a DC50 (KRAS^G12C) of 19.6 nM.

In the case of `Cc1ncsc1-c1ccc(CNC(=O)[C@@H]2C[C@@H](O)CN2C(=O)[C@@H](NC(=O)COCCCN2CCCN(c3nccc(-c4noc([C@@]5(C)CCCc6sc(N)c(C#N)c65)n4)n3)[C@@H](C)C2)C(C)(C)C)cc1` [compound 2], the kon [1] is reported as 224000 M⁻¹ s⁻¹.
